The nature of experiment [1]: Selectivity ratio was determined for P-170 glycoprotein mediated multidrug resistant variant SKVLB to the ovarian cancer cell line SK-OV3. In kind it is functional, Cancer cell lines.
For experiment [2], the system named is SK-OV-3. Nature of the experiment: Compound was tested for its antitumor activity against SKOV3 human ovarian cancer cell line. In kind it is functional, cell-based.
In experiment [3] the test system is HT-29. The experiment can be described thus: Compound was tested for its antitumor activity against HT-29 colon carcinoma cell line. In kind it is functional, cell-based. As to conditions: Homo sapiens; call rule not given here.
For experiment [4], the system named is HT-29. Nature of the experiment: Compound was tested for its antitumor activity against HT-29 colon carcinoma cell line; No activity. In kind it is functional, cell-based, Homo sapiens.

Usually IC50 stands for the concentration that gives 50% inhibition. Lower therefore signals inhibition by little substance. On to `COC1OC(C(=O)NCCN2CCCC2)=CC2=C1C(=O)c1ccccc1C2=O` (centres undefined), for which, in experiment [1], the Ratio turned out to be 10. Besides, the IC50 in experiment [2] came out at 50 nM; in experiment [3], 170 nM.

`O=C(NCCCBr)C1=CC2=C(CO1)C(=O)c1ccccc1C2=O`: the Ratio in experiment [1] is 2.6. The 50% inhibitory concentration (IC50) was determined as 1060 nM in experiment [2] and 2760 nM in experiment [3].

Regarding `CN(C)CCCNC(=O)C1=CC2=C(C(=O)c3ccccc3C2=O)C(O)O1` (centres undefined), the Ratio in experiment [1] came out at 6.3. Besides, the values for the 50% inhibitory concentration (IC50) in experiment [2] and in experiment [3] were 3700 nM and 6300 nM, respectively.

`COC1OC(C(=O)NCCCCN(C)C)=CC2=C1C(=O)c1ccccc1C2=O` (centres undefined): the Ratio in experiment [1] is 4.1. Also, the IC50 is 140 nM in experiment [2] and “Not Active” in experiment [4].

As to `COC1OC(C(=O)NCCCNC(=O)C2=CC3=C(C(=O)c4ccccc4C3=O)C(OC)O2)=CC2=C1C(=O)c1ccccc1C2=O` (centres undefined), the Ratio in experiment [1] is reported as 111. The IC50 in experiment [2] is 14 nM; in experiment [3] it was 150 nM.

In the case of `COC1OC(C(=O)NCCCN(C)C)=CC2=C1C(=O)c1ccccc1C2=O` (centres undefined), the Ratio in experiment [1] is 9.3. Also, the IC50 came out at 7 nM in experiment [2] and 70 nM in experiment [3].

As for `COC1OC(C(=O)NCC[N+](C)(C)C)=CC2=C1C(=O)c1ccccc1C2=O` (centres undefined), in experiment [1], the Ratio is listed as 1.5. In addition, the figures for the IC50 in experiment [2] and in experiment [3] were 19500 nM and 32300 nM, respectively.

Take `CCCC1OC(C(=O)NCCCN(C)C)=CC2=C1C(=O)c1ccccc1C2=O` (centres undefined): the Ratio in experiment [1] stood at 2. The IC50 was 280 nM in experiment [2] and 390 nM in experiment [3].

Turning to `CN(C)CCCNC(=O)C1=CC2=C(CO1)C(=O)c1ccccc1C2=O`, in experiment [1], the Ratio is 5.4. In addition, the IC50 in experiment [2] is 220 nM; in experiment [4], “Not Active”.

For `COC1OC(C(=O)N(C)CCN(C)C)=CC2=C1C(=O)c1ccccc1C2=O` (centres undefined), in experiment [1], the Ratio was determined as 5.4. Moreover, the values for the 50% inhibitory concentration (IC50) in experiment [2] and in experiment [3] were 110 nM and 1180 nM, respectively.

For the molecule `COC1OC(C(=O)NCCCO)=CC2=C1C(=O)c1ccccc1C2=O` (centres undefined), in experiment [1], the Ratio is listed as 6. In addition, the concentration for half-maximal inhibition (IC50) in experiment [2] was found to be 60 nM; in experiment [3] it was 1540 nM.

In the case of `COC1OC(C(=O)NCCC[S+](C)C)=CC2=C1C(=O)c1ccccc1C2=O.[Cl-]` (centres undefined), in experiment [1], the Ratio is 13. Moreover, the IC50 in experiment [2] was 1300 nM; in experiment [4], “Not Active”.

With `COc1cccc2c1C(=O)c1c(O)c3c(c(O)c1C2=O)C[C@@](O)(C(=O)CO)C[C@@H]3O[C@H]1C[C@H](N)[C@H](O)[C@H](C)O1` [DOXORUBICIN], in experiment [1], the Ratio is reported as 300. Besides, the IC50 in experiment [2] stood at 20 nM; in experiment [3], 340 nM.
